Experimental findings from US11608328B2, “Chemical probes to identify anti-mycobacterial MmpL3 inhibitors” (Creighton University, priority 2019, dated 2023) are described below.

Converted amounts (≈) assume the structure as drawn. “And” between values parts separate entries of the source, which are not always exact repeats. Identical values can stand only once. “Also recorded” adds a separate entry of the source. Like-named read-outs stand apart in the source and are kept apart here. Marks after values point to notes of the source that are not given here.

One assay relates to Mtb. Kind of assay: MIC values against Mtb used for the PMF assays. The assay is classed as cell-based, Mycobacterium tuberculosis. Conditions: read-out: MIC values.
Assay [1] deals with MsmgΔmmpL3 expressing wild-type mmpL3tb. Kind of assay: microbe, parasite or virus in culture. Type of assay: cell-based.
The test system of assay [2] is MsmgΔmmpL3 expressing mmpL3tb L189R. Type of assay: cell-based, Mycobacterium smegmatis.
Assay [3] deals with MsmgΔmmpL3 expressing mmpL3tb G253E. The assay is classed as cell-based, Mycobacterium smegmatis.
For assay [4], the system named is MsmgΔmmpL3 expressing mmpL3tb S591I. The assay is classed as cell-based, Mycobacterium smegmatis.
The test system of assay [5] is MsmgΔmmpL3 expressing mmpL3tb V684G. Type of assay: cell-based, Mycobacterium smegmatis.
In assay [6] the test system is MsmgΔmmpL3 expressing mmpL3tb V684A. The assay is classed as cell-based, Mycobacterium smegmatis.
The subject of assay [7] is MsmgΔmmpL3 expressing mmpL3tb LI89A. Description: microbe, parasite or virus in culture. Type of assay: cell-based. Conditions: Table 2, mutant LI89A.
Assay [8] concerns MsmgΔmmpL3 expressing mmpL3tb G253R. Type of assay: cell-based, Mycobacterium smegmatis.
Assay [9] deals with MsmgΔmmpL3 expressing mmpL3tb G253W. The assay is classed as cell-based, Mycobacterium smegmatis.
The subject of assay [10] is MsmgΔmmpL3 expressing mmpL3tb S591W. The assay is classed as cell-based, Mycobacterium smegmatis.
Assay [11] concerns MsmgΔmmpL3 expressing mmpL3tb S591G. Type of assay: cell-based, Mycobacterium smegmatis.
Assay [12] deals with MsmgΔmmpL3 expressing mmpL3tb F644C/I/L. The assay is classed as cell-based, Mycobacterium smegmatis.
For assay [13], the system named is MsmgΔmmpL3 expressing mmpL3tb F644Y. Type of assay: cell-based, Mycobacterium smegmatis.
Assay [14] has as its system MsmgΔmmpL3 expressing mmpL3tb V684I. Type of assay: cell-based, Mycobacterium smegmatis.
For assay [15], the system named is MsmgΔmmpL3 expressing mmpL3tb V684W. Type of assay: cell-based, Mycobacterium smegmatis.
In assay [16] the test system is MsmgΔmmpL3 expressing mmpL3tb S288T. Type of assay: cell-based, Mycobacterium smegmatis.
Assay [17] has as its system MsmgΔmmpL3 expressing mmpL3tb S309C. The assay is classed as cell-based, Mycobacterium smegmatis.
The subject of assay [18] is MsmgΔmmpL3 expressing mmpL3tb T311I. The assay is classed as cell-based, Mycobacterium smegmatis.
The test system of assay [19] is MsmgΔmmpL3 expressing mmpL3tb Q372R. The assay is classed as cell-based, Mycobacterium smegmatis.
Assay [20] deals with MsmgΔmmpL3 expressing mmpL3tb L567P. The assay is classed as cell-based, Mycobacterium smegmatis.
In assay [21] the test system is MsmgΔmmpL3 expressing mmpL3tb F644C. The assay is classed as cell-based, Mycobacterium smegmatis.
For another assay, the target named is MmpL3tb (MmpL3^WT) (Mycobacterium tuberculosis, UniProt P9WJV5). Type of assay: binding. Conditions: 50, 100 and 200 μM.
Assay [22] deals with Mtb H37Rv mc^26206 inverted membrane vesicles (IMVs). Description: Succinate-driven proton translocation assay (ACMA) in inverted membrane vesicles. Type of assay: biochemical, Mycobacterium tuberculosis. To be noted: one and four times MIC against Mtb. The protocol: (§1) FIG. 19A: The reactions were initiated by adding 5 mM succinate. Upon stabilization of the signal, control compounds (INH, RIF, nigericin), the MmpL3 inhibitors or diluent (water, used for INH, or 0.2% DMSO, used for all other compounds) were added and proton translocation monitored fluorimetrically. MmpL3 inhibitors and controls were used at one and four times their MIC concentrations against Mtb. Shown are the averages and standard deviations (error bars) of triplicate measurements.
(§2) Succinate-driven proton translocation assays with the fluorescent substrate ACMA were conducted as previously described (see e.g., Li et al. J. Med. Chem. 2014, 57: 3126-3139) to determine the effect of MmpL3 inhibitors on the electrochemical proton gradient of Mtb H37Rv mc^26206 and E. coli BL21(DE3) IMVs. IMVs (0.18 mg/mL membrane proteins) were pre-incubated at 37° C. in 10 mM HEPES-KOH pH 7.5, 100 mM KCl, 5 mM MgCl2 containing 2 μM ACMA and the baseline monitored for 10 min with a fluorescence spectrophotometer (Victor X5, PerkinElmer). The reaction was then initiated by adding 5 mM succinate. Upon stabilization of the signal, control compounds (INH, RIF, nigericin), MmpL3 inhibitors, or diluent (0.2% DMSO or water) were added and proton translocation monitored fluorimetrically. The excitation and emission wavelengths were 410 nm and 480 nm, respectively.

The next assay concerns E. coli BL21(DE3) IMVs. Described as above. The assay is classed as biochemical. Conditions: 2 μg/mL. How it is done: as §1, §2
The target in another assay is purified MmpL3tb protein (Mycobacterium tuberculosis, UniProt P9WJV5). Description: Surface Plasmon Resonance binding to immobilized MmpL3tb.
The target of the next assay is purified MmpL3-GFP (Mycobacterium tuberculosis, UniProt P9WJV5). The assay is classed as binding.
Assay [23] addresses T1, MmpL3tb- and MmpL3tb-GFP-coated particles (Mycobacterium tuberculosis, UniProt P9WJV5).
T1 construct: His tag; made in house; host or cells: Mycobacterium smegmatis ΔmmpL3 carrying pMVGH1-mmpL3tb or pMVGH1-mmpL3tb-gfp
Type of assay: binding. Conditions: 15 min at room temperature; various probe concentrations.

Where [24] appears, read: Mycolicibacterium smegmatis, Tables 1A-1B, MmpL3 WT, read-out: MIC.

Sequence of purified MmpL3tb protein (P9WJV5 whole entry): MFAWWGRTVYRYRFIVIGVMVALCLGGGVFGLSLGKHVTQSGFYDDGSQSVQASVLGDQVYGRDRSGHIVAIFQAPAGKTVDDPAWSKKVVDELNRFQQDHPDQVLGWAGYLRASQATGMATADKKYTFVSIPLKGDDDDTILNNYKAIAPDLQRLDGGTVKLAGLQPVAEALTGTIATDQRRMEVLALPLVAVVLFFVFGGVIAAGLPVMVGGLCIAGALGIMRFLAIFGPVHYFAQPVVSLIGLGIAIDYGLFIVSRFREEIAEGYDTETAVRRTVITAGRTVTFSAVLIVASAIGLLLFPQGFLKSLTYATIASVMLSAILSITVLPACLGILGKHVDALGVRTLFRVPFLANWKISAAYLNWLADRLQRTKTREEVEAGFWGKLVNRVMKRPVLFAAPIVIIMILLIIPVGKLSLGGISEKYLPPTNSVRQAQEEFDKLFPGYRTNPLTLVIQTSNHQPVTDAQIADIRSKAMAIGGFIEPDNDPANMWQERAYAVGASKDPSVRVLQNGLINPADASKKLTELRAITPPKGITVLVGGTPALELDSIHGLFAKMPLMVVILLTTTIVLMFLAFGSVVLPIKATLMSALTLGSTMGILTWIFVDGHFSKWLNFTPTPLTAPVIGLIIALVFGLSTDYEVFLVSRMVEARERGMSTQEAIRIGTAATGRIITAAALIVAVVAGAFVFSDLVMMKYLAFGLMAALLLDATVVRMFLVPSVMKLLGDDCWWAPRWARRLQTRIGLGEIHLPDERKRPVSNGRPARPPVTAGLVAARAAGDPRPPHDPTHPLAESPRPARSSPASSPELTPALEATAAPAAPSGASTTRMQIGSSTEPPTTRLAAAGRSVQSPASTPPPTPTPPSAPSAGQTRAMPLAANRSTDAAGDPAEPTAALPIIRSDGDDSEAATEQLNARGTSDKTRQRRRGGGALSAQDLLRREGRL
Sequence of MmpL3tb (MmpL3^WT) (P9WJV5 whole entry): as above
T1 sequence (P9WJV5 whole entry): as above
Sequence of purified MmpL3-GFP (P9WJV5 whole entry): as above

Take `N#CC(C#N)=NNc1cccc(Cl)c1` [CCCP]: the MIC in the assay on Mtb (against Mtb, FIG. 8 legend) stood at 6.25 µM (≈ 1.28 µg/mL).

As to `O=C(O)c1cn(C2CC2)c2cc(N3CCNCC3)c(F)cc2c1=O` [CIP, ciprofloxacin], the MIC in assay [1] (Mycolicibacterium smegmatis), in [2], in [3], in [4], in [5] and in [6] was 0.31 µg/mL (≈ 0.936 µM) each time. In addition, the MIC came out at 0.31 µg/mL (≈ 0.936 µM) in [7] (Mycolicibacterium smegmatis, read-out: MIC); 0.31 µg/mL (≈ 0.936 µM) in assay [8]; 0.31 µg/mL (≈ 0.936 µM) in assay [9]; 0.31 µg/mL (≈ 0.936 µM) in assay [10]; 0.31 µg/mL (≈ 0.936 µM) in assay [11]; 0.31 µg/mL (≈ 0.936 µM) in assay [12]. For the same compound, the MIC in assay [13], in assay [14] and in assay [15] was 0.31 µg/mL (≈ 0.936 µM) in each case.

For the compound `C[C@@H]1[C@H]2C[C@@H](C[C@H]1NC(=O)c1cc3ccccc3[nH]1)C2(C)C` [North 4], the MIC is 0.16 µg/mL (≈ 0.54 µM) in [1] (setting [24]); 1.28^a μg/mL in assay [2]; 1.28^a μg/mL in assay [3]; 1.28^a μg/mL in [16]; 1.28^a μg/mL in assay [17]; 0.08 µg/mL (≈ 0.27 µM) in assay [18]. For the same compound, the MIC is 0.32 µg/mL (≈ 1.08 µM) in [19]; 0.64^b μg/mL in [20]; 0.64^b μg/mL in assay [4]; 0.32 µg/mL (≈ 1.08 µM) in assay [21]; 1.28^a μg/mL in assay [5]; 0.32 µg/mL (≈ 1.08 µM) in [6]. In addition, the BLI binding signal entry on MmpL3tb (MmpL3^WT) is “consistently bound to MmpL3tb with the strongest signals”.

As for `Cc1cc(C)c2cc(C(=O)NC3CCCCCCC3)[nH]c2c1` [North 21], the MIC in [1] (setting [24]) was 0.05 µg/mL (≈ 0.168 µM); in [2], 0.2^b μg/mL; in assay [3] it was 0.2^b μg/mL; in assay [16], 0.2^b μg/mL; in [17], 0.2^b μg/mL; in [18], 0.05 µg/mL (≈ 0.168 µM). The MIC is 0.05 µg/mL (≈ 0.168 µM) in assay [19]; 0.1 µg/mL (≈ 0.335 µM) in assay [20]; 0.1 µg/mL (≈ 0.335 µM) in [4]; 0.05 µg/mL (≈ 0.168 µM) in [21]; 0.2^b μg/mL in [5]; 0.05 µg/mL (≈ 0.168 µM) in assay [6]. Besides, the BLI binding signal entry at MmpL3tb (MmpL3^WT) is recorded as “consistently bound to MmpL3tb with the strongest signals”.

With `CO[C@H]1/C=C/O[C@@]2(C)Oc3c(C)c(O)c4c(O)c(c(/C=N/N5CCN(C)CC5)c(O)c4c3C2=O)NC(=O)/C(C)=C\C=C\[C@H](C)[C@H](O)[C@@H](C)[C@@H](O)[C@@H](C)[C@H](OC(C)=O)[C@@H]1C` [RIF, rifampicin], in the assay on Mtb (Mycobacterium tuberculosis), the MIC is 0.19 µM (≈ 0.156 µg/mL).

Turning to `CO[C@@H]1C[C@@H](C[C@H]2CC[C@H](C)[C@H]([C@@H](C)C(=O)O)O2)O[C@]2(O[C@](C)([C@H]3CC[C@@](C)([C@@H]4O[C@@H]([C@H]5O[C@@](O)(CO)[C@H](C)C[C@@H]5C)C[C@@H]4C)O3)C[C@H]2C)[C@@H]1C` [nigericin], the MIC in the assay on Mtb (Mycobacterium tuberculosis, against Mtb, FIG. 8 legend) is 4.31 µM (≈ 3.12 µg/mL). Moreover, the “effect on ΔpH of Mtb IMVs” value in [22] is “increase of fluorescence intensity indicative of ΔpH collapse”. Also, the “effect on ΔpH of E. coli IMVs” value in the assay on E. coli BL21(DE3) IMVs is “collapse the ΔpH of E. coli IMVs”.

For AU1235, the MIC in assay [1] (Table 2, MmpL3 WT) was 0.31 µg/mL; in [1] (Tables 1A-1B, MmpL3 WT), 0.39 µg/mL; in assay [2], 1.56^b μg/mL and 1.25 μg/mL; in [3], 3.13^a μg/mL and 5 μg/mL; in [16], 12.5^a μg/mL; in [17] it was 3.13^b μg/mL. For the same compound, the MIC in [18] was 1.56^b μg/mL; in [19] it was 0.78 µg/mL; in [20] it was 0.78 µg/mL; in assay [4], 3.13^a μg/mL and 2.5 μg/mL; in assay [21], 0.78 µg/mL; in [5] it was 3.13^a μg/mL and 2.5 μg/mL. Also, the MIC in assay [6] is 1.56^b μg/mL and 1.25 μg/mL; in [7], 0.62^c μg/mL; in [8], 0.62^c μg/mL; in assay [9], 2.5-5 ^ μg/mL; in assay [10], 0.62^c μg/mL; in [11] it was 0.31-0.62^c μg/mL. In addition, the MIC was 0.62 µg/mL in assay [12]; 0.15^c μg/mL in [13]; 0.31^c μg/mL in [14]; 0.62 µg/mL in assay [15]; 0.48 µM in the assay on Mtb (against Mtb, FIG. 8 legend). In addition, at purified MmpL3tb protein, the “Model (best-fit kinetic model)” value was “Two-state reaction”. Besides, at purified MmpL3tb protein, the SPR binding signal result is on record as “strong SPR signals”. On purified MmpL3tb protein, this compound had a ka1 of 1858.1 M⁻¹ s⁻¹. On purified MmpL3tb protein, the ka2 is given as 0.019 1/RU*s. The same compound showed a kd1 on purified MmpL3tb protein of 0.39 s⁻¹. The compound further yielded a kd2 on purified MmpL3tb protein of 0.0316 s⁻¹. Further, the Kd at purified MmpL3tb protein (read-out: KD1) is 132 µM. For the same compound, at MmpL3tb (MmpL3^WT), the BLI binding signal result is recorded as “weak binding signal”. In addition, the “displacement of Compound 2 from purified MmpL3tb” value on purified MmpL3-GFP is on record as “clear concentration-dependent displacement”. For the same compound, the “effect on ΔpH of Mtb IMVs” value in [22] was “increase of fluorescence intensity indicative of ΔpH collapse; also recorded: also collapsed ΔpH in this assay when used at 4-fold MIC concentration”.

As for “Methyl 4-(3-((3s,5s,7s)-adamantan-1-yl)ureido)-2-((1-(3-(3-(5,5-difluoro-7,9-dimethyl-5H-5λ^4,6λ^4-dipyrrolo[1,2-c:2′,1′-f][1,3,2]diazaborinin-3-yl)propanamido)propyl)-1H-1,2,3-triazol-4-yl)methoxy)benzoate [Compound 4]”, the MIC in assay [1] (Tables 1A-1B, MmpL3 WT) was 64 µg/mL. Further, the “probe binding to coated particles (MFI)” value in assay [23] was “concentration-dependent binding”.

For “N-cyclooctyl-5-((1-(3-(3-(5,5-difluoro-7,9-dimethyl-5H-5λ^4,6λ^4-dipyrrolo[1,2-c:2′,1′-f][1,3,2]diazaborinin-3-yl)propanamido)propyl)-1H-1,2,3-triazol-4-yl)methoxy)-1H-indole-2-carboxamide [Compound 3]”, in [1] (Tables 1A-1B, MmpL3 WT), the MIC is 32 µg/mL.
